# Experimental data: ChEMBL document CHEMBL5505979, “Novel aminothiazoximone-corbelled ethoxycarbonylpyrimidones with antibiofilm activity to conquer Gram-negative bacteria through potential multitargeting effects” (Eur J Med Chem, 2024)
# The source made the active and inactive calls. The calls are words filed in the database; no cut-off is given here.
# Experiments:
# [1] = tested on: Escherichia coli; experiment: Induction of membrane depolarization Escherichia coli ATCC 25922 assessed as increase in red fluorescence intensity at 0.5 to 8 times of MIC concentration measured after 6 hrs by […] assay; type: functional, organism-based
# [2] = tested on: Acinetobacter baumannii; experiment: Reduction in metabolic activity of Acinetobacter baumannii assessed as decrease in bacterial lactate dehydrogenase activity at 0.5 to 8 times of MIC concentration; type: functional, organism-based
# [3] = Hemolysis in human RBC assessed as morphological changes of RBC by measuring intact/smooth surface rounded cell surface at 128 times of MIC concentration for 6 hrs by microscopic analysis; type: toxicity, cell-based; conditions: erythrocyte
# [4] = tested on: Escherichia coli; experiment: Anti-bacterial activity against Escherichia coli ATCC 25922 assessed as growth inhibition by measuring optical density measured at 2 time of MIC in presence of 1/8 times of MIC of norfloxacin by Checkerboard assay (reference value: 0.128); type: functional
# [5] = tested on: Acinetobacter baumannii; experiment: Anti-bacterial activity against Acinetobacter baumannii assessed as growth inhibition by measuring optical density measured at 1/4 time of MIC in presence of 1/8 times of MIC of norfloxacin by Checkerboard assay (reference value: 0.152); type: functional
# [6] = tested on: Escherichia coli; experiment: Reduction of biofilm virulent factors in Escherichia coli ATCC 25922 assessed as decrease in extracellular polymeric substances (EPS) at 4 times of MIC concentration by congo red binding assay relative to control; type: functional; set-up: scale not given: the % may be the effect or the level left
# [7] = tested on: Pseudomonas aeruginosa; experiment: Anti-bacterial activity against Pseudomonas aeruginosa ATCC 27853 assessed as inhibition of bacterial growth; type: functional; conditions: Pseudomonas aeruginosa, ATCC 27853; read-out: MIC
# [8] = tested on: Escherichia coli; experiment: Anti-bacterial activity against Escherichia coli ATCC 25922 assessed as inhibition of bacterial growth; type: functional
# [9] = tested on: Escherichia coli; experiment: Anti-bacterial activity against Escherichia coli ATCC 25922 assessed as growth inhibition by measuring optical density measured at 1/2 time of MIC in presence of 1/8 times of MIC of norfloxacin by Checkerboard assay (reference value: 0.124); type: functional
# [10] = tested on: Pseudomonas aeruginosa; experiment: Anti-bacterial activity against Pseudomonas aeruginosa ST235 assessed as inhibition of bacterial growth; type: functional; conditions: Pseudomonas aeruginosa, ST235; read-out: MIC
# [11] = tested on: Acinetobacter baumannii; experiment: Induction of membrane disturbance in Acinetobacter baumannii assessed as increase in fluorescence intensity at 0.5 to 8 times of MIC concentration measured after 90 mins by Propidium iodide assay; type: functional, organism-based
# [12] = tested on: Calf thymus DNA; experiment: Binding affinity to calf thymus DNA assessed as decrease in fluorescence intensity at 530 nm by Acridine Orange based fluorescence spectroscopy; type: nucleic-acid assay; conditions: Bos taurus
# [13] = tested on: Staphylococcus aureus; experiment: Anti-bacterial activity against Staphylococcus aureus CMCC (B) 26001 assessed as inhibition of bacterial growth; type: functional
# [14] = tested on: Acinetobacter baumannii; experiment: Reduction of biofilm virulent factors in Acinetobacter baumannii assessed as decrease in extracellular polymeric substances (EPS) at 2 times of MIC concentration by congo red binding assay relative to control; type: functional; set-up: scale not given: the % may be the effect or the level left
# [15] = tested on: Escherichia coli; experiment: Induction of intracellular ROS accumulation in Escherichia coli ATCC 25922 assessed as larger green fluorescence densities at 1/4 to 2 times of MIC by microscopic imaging assay; type: functional, organism-based
# [16] = tested on: Acinetobacter baumannii; experiment: Anti-bacterial activity against Acinetobacter baumannii assessed as growth inhibition by measuring optical density measured at 2 time of MIC in presence of 1/4 times of MIC of norfloxacin by Checkerboard assay (reference value: 0.155); type: functional
# [17] = tested on: Staphylococcus aureus; experiment: Anti-bacterial activity against methicillin-resistant Staphylococcus aureus ATCC 43300 assessed as inhibition of bacterial growth; type: functional; conditions: Staphylococcus aureus, ATCC 43300; read-out: MIC
# [18] = tested on: Acinetobacter baumannii; experiment: Anti-bacterial activity against Acinetobacter baumannii assessed as growth inhibition by measuring optical density measured at 4 time of MIC in presence of 1/4 times of MIC of norfloxacin by Checkerboard assay (reference value: 0.152); type: functional
# [19] = tested on: Acinetobacter baumannii; experiment: Reduction of biofilm virulent factors in Acinetobacter baumannii assessed as decrease in extracellular polymeric substances (EPS) by measuring optical density at 490 nm at 4 times of MIC concentration by congo red binding assay (reference value: 0.188 to 0.192); type: functional
# [20] = tested on: Acinetobacter baumannii; experiment: Anti-bacterial activity against Acinetobacter baumannii assessed as growth inhibition by measuring optical density measured at 1 time of MIC in presence of 2 times of MIC of norfloxacin by Checkerboard assay (reference value: 0.157); type: functional
# [21] = tested on: Klebsiella pneumoniae; experiment: Anti-bacterial activity against Klebsiella pneumoniae KPN325 assessed as inhibition of bacterial growth; type: functional; conditions: Klebsiella pneumoniae, KPN325; read-out: MIC
# [22] = tested on: Candida parapsilosis; experiment: Anti-fungal activity against Candida parapsilosis assessed as inhibition of fungal growth; type: functional; conditions: Lodderomyces parapsilosis; read-out: MIC
# [23] = tested on: Escherichia coli; experiment: Anti-bacterial activity against Escherichia coli ATCC 25922 assessed as growth inhibition by measuring optical density measured at 1 time of MIC in presence of 1/4 times of MIC of norfloxacin by Checkerboard assay (reference value: 0.125); type: functional
# [24] = tested on: Pseudomonas aeruginosa; experiment: Anti-bacterial activity against Pseudomonas aeruginosa CMCC (B) 10104 assessed as inhibition of bacterial growth; type: functional; conditions: Pseudomonas aeruginosa, CMCC (B) 10104; read-out: MIC
# [25] = tested on: Cell membrane; experiment: Induction of physical destruction of cell membrane in Escherichia coli ATCC 25922 assessed as leakage of nucleic acid by measuring absorbance of 260 nm at 1/4 to 8 times of MIC concentration; type: cell membranes
# [26] = tested on: Escherichia coli; experiment: Anti-bacterial activity against Escherichia coli ATCC 25922 assessed as growth inhibition by measuring optical density measured at 1/2 time of MIC in presence of 1/4 times of MIC of norfloxacin by Checkerboard assay (reference value: 0.124); type: functional
# [27] = tested on: Escherichia coli; experiment: Antibiofilm activity against Escherichia coli ATCC 25922 assessed as clearance rate of mature biofilm at 8 times of MIC concentration relative to control; type: functional
# [28] = tested on: Escherichia coli; experiment: Induction of membrane disturbance in Escherichia coli ATCC 25922 assessed as increase in fluorescence intensity at 0.5 to 8 times of MIC concentration measured after 90 mins by Propidium iodide assay; type: functional, organism-based
# [29] = tested on: Escherichia coli; experiment: Anti-bacterial activity against Escherichia coli ATCC 25922 assessed as growth inhibition by measuring optical density measured at 2 time of MIC in presence of 1 times of MIC of norfloxacin by Checkerboard assay (reference value: 0.128); type: functional
# [30] = tested on: Escherichia coli; experiment: Anti-bacterial activity against Escherichia coli ATCC 25922 assessed as growth inhibition by measuring optical density measured at 4 time of MIC in presence of 1/2 times of MIC of norfloxacin by Checkerboard assay (reference value: 0.125); type: functional
# [31] = tested on: Acinetobacter baumannii; experiment: Reduction in metabolic activity of Acinetobacter baumannii at 2 times of MIC concentration relative to control; type: functional; set-up: scale not given: the % may be the effect or the level left
# [32] = tested on: Escherichia coli; experiment: Anti-bacterial activity against Escherichia coli ATCC 25922 assessed as growth inhibition by measuring optical density measured at 1/2 time of MIC in presence of 2 times of MIC of norfloxacin by Checkerboard assay (reference value: 0.124); type: functional
# [33] = tested on: Acinetobacter baumannii; experiment: Anti-bacterial activity against Acinetobacter baumannii assessed as growth inhibition by measuring optical density measured at 1 time of MIC in presence of 1 times of MIC of norfloxacin by Checkerboard assay (reference value: 0.157); type: functional
compound,measurement,setting,value
CCCCc1nc(Cl)c(C2NC(=O)NC(CN3CCN(C(=O)/C(=N/OC)c4csc(N)n4)CC3)=C2C(=O)OCC)[nH]1 (stereo not drawn),Activity,[1],Active
same,Activity,[2],Active
same,Activity,[3],Non-Toxic
same,OD,[4],0.122
same,OD,[5],0.127
same,Activity,[6],52.3%
same,MIC,[7],26 µM
same,MIC,[8],7 µM
same,OD,[9],0.117
same,MIC,[10],26 µM
same,Activity,[11],Active
same,Activity,[12],Active
same,MIC,[13],26 µM
same,Activity,[14],70.2%
same,Activity,[15],Active
same,OD,[16],0.107
same,MIC,[17],13 µM
same,OD,[18],0.051
same,OD,[19],0.097
same,OD,[20],0.053
same,MIC,[21],53 µM
same,MIC,[22],422 µM
same,OD,[23],0.111
same,MIC,[24],26 µM
same,Activity,[25],Active
same,OD,[26],0.118
same,Activity,[27],37.9%
same,Activity,[28],Active
same,OD,[29],0.052
same,OD,[30],0.052
same,Activity,[31],66.3%
same,OD,[32],0.051
same,OD,[33],0.052
